Results taken from patent publication US20260335388A1, “COMBINATION THERAPIES WITH ONCOLYTIC ADENOVIRUS AND TOPOISOMERASE I INHIBITORS OR PRODRUGS THEREOF” (priority 2022, published 2026).
Read-outs that look alike come from different tables or passages of the source.

How the values were obtained:
Y79 retinoblastoma cells = experiment: cells; format: cell-based
CDKN1A = format: cell-based, human; settings: RBT-7 cells pre-infected with VCN-01; topotecan 2 μM (FIG. 17F)
Method: To assess the expression of genes involved in the cell cycle, 6-well culture plates containing 2×10^6 retinoblastoma cells were used. VCN-01 was added at 50 MOI for 48 h, followed by the addition of topotecan (2 μM), […] (12.5 μM) or culture medium. The cell pellets were collected 24 h later. The samples were plated in the TaqMan® Array of Human Cyclins & Cell Cycle Regulation (Thermo Fisher Scientific). This array contains 92 assays of cell cycle-associated genes and assays of GAPDH, 18S, HPRT1 and GUSB as endogenous control genes. the threshold cycle (Ct) value ≥35 was established as absence of expression. The mean expression value of the controls was used to normalize gene expression values. The thresholds for upregulation and downregulation were 2^−ΔΔCt≥2.0 and 2^−ΔΔct≤0.5, respectively (Livak and Schmittgen, “Analysis of relative gene expression data using real-time quantitative PCR and the 2 (−Delta Delta C(T)) Method,” Methods 2001; 25(4):402-8).
SYBR primers were CDKN1A (Forward 5′-GGACAGGAGAGGAAGACCATGT-3′ (SEQ ID NO: 15), Reverse 5′-TGGAGTGGTAGAATTCTGTCATGC-3′ (SEQ ID NO: 16) and CDK6 (Forward 5′-CCAGGCAGGCTTTTCATTCA-3′ (SEQ ID NO: 17), Reverse 5′-AGGTCCTGGAAGTATGGGTG-3′ (SEQ ID NO: 18).

Y79 cells = experiment: Viability of Y79 cells by treatment sequence; format: cell-based
Method: To address the sequence of the treatments on cell viability and apoptosis markers, topotecan (2 μM) and VCN-01 at 50 MOI (concentration sufficient to achieve viral protein transduction at early time points) was incubated with the sequence “topotecan first” (three days before VCN-01) or “VCN-01 first” (three days before topotecan). The experiments were controlled by adding culture medium instead of the second treatment.

[1] = test system: Y79 cells and primary retinoblastoma cultures; format: cell-based
[2] = cited from earlier work
[3] = test system: HSJD-RBT-7 retinoblastoma cells; experiment: cells; format: cell-based; settings: Homo sapiens
E2F-1 = E2F-1 immunostaining in intraocular Y79 tumors; format: in vivo, mouse; settings: mice with intraocular Y79 tumors, vs untreated (FIG. 17E)
[4] = test system: recombinant hyaluronidase PH20 (SPAM1 gene); experiment: mRNA expression of recombinant hyaluronidase PH20 (SPAM1) in s.c. retinoblastomas; format: in vivo, mouse; settings: 5 days, compared to […] (FIG. 18H)
Method: To quantify the recombinant PH20 hyaluronidase gene (SPAM1) in cultures and mouse tissues, the SYBR primer: Forward 5′-TACACACTCCTTGCTCCTGG-3′ (SEQ ID NO: 19), Reverse: 5′-CTTAGTCTCACAGAGGCCAC-3′ (SEQ ID NO: 20) (Bazan-Peregrino et al., “VCN-01 disrupts pancreatic cancer stroma and exerts antitumor effects,” Journal for ImmunoTherapy of Cancer 2021; 9(11):e003254) was used.
To establish s.c. tumors, 10^6 retinoblastoma cells suspended in 25 µL matrigel (Corning, Glendale, AZ, USA) were injected in athymic nude mice. Upon xenograft engraftment (tumor volumes ranging 100-200 mm^3), treatments were started. Mice received VCN-01 (3×10^9 vp in 20 µL vehicle, single intratumoral injection at day 1), alone or combined with one cycle of topotecan (0.6 mg/kg, intraperitoneal -i.p.-, daily at days 1-5), […] (40 mg/kg, i.p, one single dose at day 1), or hydroxyurea (200 mg/kg, i.p., daily at days 1-5). A group of mice received one intratumoral injection of the vehicle of VCN-01 (20 mM pH 8.0 tris buffer, 25 mM NaCl and 2.5% glycerol). Mice were sacrificed at 5 and 15 days after VCN-01 inoculation, the tumors were dissected and tumor homogenates were prepared by adding 10 μL of water per mg of tissue and homogenizing with a Bullet Blender turbine Storm 24 (Quasar instruments, Colorado Springs, CO, USA). In tumor homogenates, genome copies of VCN-01 were quantified. […]

[5] = non-tumor bearing pigs, cited from earlier work
[6] = test system: E1A, E1B, E2F-1, p53 and cPARP; experiment: Expression of viral genes and proteins by treatment sequence, Y79 cells; format: cell-based
Method: The expression of viral genes E1A and E1B was studied in 6-well culture plates containing 2×10^6 retinoblastoma cells. […] The experiments were controlled by adding culture medium instead of topotecan. […] Real time quantitative polymerase chain reactions (RT-qPCR) were carried out to analyze gene expression using SYBR technology (Thermo Fisher Scientific).
In all experiments, 6-well culture plates containing 2×10^6 cells were used. […] The experiments were controlled by adding culture medium instead of the second treatment. […] The analyses were expanded to other chemotherapeutic agents including hydroxyurea ([…]), etoposide (2 μM), irinotecan (10 μM) or SN-38 (1 μM).
Near-infrared labeled secondary antibodies (Odyssey CLx, LI-COR Inc. Bad Homburg, Germany) were used for detection.

[7] = read-out: IC50, Topotecan single agent
[8] = read-out: IC50, Topotecan with VCN-01 (10 MOI)
[9] = topotecan pretreatment before VCN-01 (FIG. 13E)

## CC[C@@]1(O)C(=O)OCc2c1cc1n(c2=O)Cc2cc3c(CN(C)C)c(O)ccc3nc2-1 [Topotecan, topotecan]
Y79 retinoblastoma cells; [7]
  IC50: 30.3 nM
Y79 retinoblastoma cells; [8]
  IC50: 893 nM
CDKN1A
  increase in expression of CDKN1A: 10 fold
Y79 cells; cells pre-exposed to topotecan before VCN-01 infection (FIG. 13D)
  antiproliferative activity, topotecan first: sensitive to the antiproliferative activity of the drug
Y79 cells; previous VCN-01 infection (FIG. 13D)
  antiproliferative activity, VCN-01 first: partially abolished the activity of the drug
[1]; cells pre-infected with AdTLRGDK (FIG. 18E, FIG. 19A)
  transgene expression, virus first: increased transgene expression
[1]; drug exposure before viral infection (FIG. 18E)
  viral transduction, drug first: did not enhance viral transduction
[2]; all routes of administration
  ocular toxicity: minimal
[2]; given intravenously and intraarterially
  passage to the vitreous: favorable passage to the vitreous
[3]; [7]
  IC50: 15.1 nM
[3]; [8]
  IC50: 118 nM
E2F-1
  E2F-1 expression in cancer cells: higher in the animals treated with topotecan
[4]
  expression of recombinant hyaluronidase: higher expression of recombinant hyaluronidase
[5]
  systemic exposure, OAC versus IV: systemic exposure was comparable between the two routes
[5]; retina, after OAC than after IV
  topotecan concentration in retina, OAC versus IV: 146 times higher
[5]; vitreous, after OAC than after IV
  topotecan concentration in vitreous, OAC versus IV: 243 times higher
[6]; topotecan addition after the virus (FIG. 13E,F)
  E1A expression, VCN-01 first: up to two orders of magnitude
[6]; topotecan addition after the virus (FIG. 13G)
  E1B expression, VCN-01 first: up to two orders of magnitude
[6]; [9]
  E2F-1 level, topotecan first: accumulation of E2F-1
  p53 and cPARP expression, topotecan first: increased expression of proapoptotic proteins p53 and cPARP
[6]; topotecan pretreatment before VCN-01 (FIG. 13E,F)
  E1A expression (protein and gene), topotecan first: low expression of E1A (protein and gene)
